# Entries after “also recorded” stand apart in the source; their conditions may differ.
# Key:
# [1] = tested on: adult subjects with late-onset Pompe disease (LOPD); experiment: Study ATB200-03 (PROPEL): PROMIS-Physical Function; assay type: in vivo, human; details: for PROMIS physical function outcome: overall and ERT-experienced populations
# Description: The test for the primary endpoint was conducted first at the 1-sided 0.025 significance level, and if significant, the ordered key secondary endpoints were similarly tested at the same significance level. The statistical significance of the key secondary endpoints was interpreted following a hierarchical testing order, each at the 1-sided alpha level of 0.025. […] Primary analyses of efficacy were performed using the mixed-effect model for repeated measures (MMRM) for 6MWD in Intent-to-treat Observed Population (ITT) that includes all available, observed data without any missing data imputation (ITT-OBS) and analysis of covariance (ANCOVA) for all other endpoints in the Intent-to-Treat-Last Observation Carried Forward (ITT-LOCF) Population. A nonparametric randomization based ANCOVA was specified as the first sensitivity analysis for 6MWD and FVC. […] For the purposes of data presentation in this document, 2-sided p-values are reported hereafter, except as otherwise noted.
# [2] = tested on: adult subjects with Pompe disease; experiment: Pooled Studies ATB200-02/03/07 (Pool 2): sitting % predicted FVC by exposure interval
# Description: The pooled efficacy analyses presented within this section include the outlier (Pool 2). […] Pooled efficacy analyses excluding the outlier subject (Pool 2A) were also performed.
# No long-term data for the alglucosidase alfa/placebo group are available, as all subjects switched to cipaglucosidase alfa/miglustat in Study ATB200-07.
# Efficacy data from the 3 adult Pompe disease clinical studies were pooled and analyzed to further support the long-term efficacy of cipaglucosidase alfa/miglustat in adult subjects. Data from non-ambulatory subjects (Study ATB200-02 Cohort 2) were not included in the pool as there was little overlap of efficacy endpoints for this group with the various ambulatory groups, such as 6MWD and lower MMT.
# The 3 adult Pompe disease clinical studies were pooled as follows: • The cipaglucosidase alfa/miglustat treatment group consists of: • All ambulatory subjects in Study ATB200-02 (Cohorts 1, 3, and 4), • All subjects randomized to the cipaglucosidase alfa/miglustat treatment group in Study ATB200-03, and • All subjects enrolled in Study ATB200-07. • The alglucosidase alfa/placebo treatment group consists of: • All subjects randomized to the ERT treatment group in Study ATB200-03.
# [3] = tested on: adult subjects with LOPD; experiment: Study ATB200-07 (OLE): CK
# Description: The Phase III double-blind PROPEL study (NCT03729362; ATB200-03) described in Examples 9 and 10 above compared the investigational two-component therapy cipaglucosidase alfa/miglustat (cipa/mig) with alglucosidase alfa/placebo (alglu) in adults with late-onset Pompe disease (LOPD) over 52 weeks. The ongoing open-label extension (OLE) of PROPEL (NCT04138277; ATB200-07) evaluates long-term safety and efficacy of cipa/mig. Outcomes include 6 minute walk distance (6MWD), forced vital capacity (FVC), creatine kinase (CK) and hexose tetrasaccharide (Hex4) levels and safety. Data are reported as change from the PROPEL baseline to OLE week 52 (104 weeks after the PROPEL baseline).
# [4] = tested on: adult subjects with late-onset Pompe disease (LOPD); experiment: Study ATB200-03 (PROPEL): serum creatine kinase (CK); assay type: in vivo, human; details: for CK reduction vs alglucosidase alfa: week 52
# [5] = tested on: adult subjects with LOPD; experiment: Study ATB200-07 (OLE of PROPEL): 6MWD and % predicted 6MWD; assay type: in vivo, human
# Description: (§1) The study doses and schedule are maintained from Study ATB200-03.
# (§2) Efficacy data are presented in this summary as change from the baseline of Study ATB200-03 (OLE-ES Population).
# [6] = tested on: adult subjects with LOPD; experiment: Study ATB200-07 (OLE): sitting % predicted FVC; assay type: in vivo, human
# Description: as §1, §2
# [7] = tested on: adult subjects with LOPD; experiment: Study ATB200-07 (OLE): PROMIS-Fatigue; assay type: in vivo, human
# Description: Analysis populations presented in this summary are 1) the OLE-ES Population (all subjects who satisfied the eligibility requirements (based on the inclusion and exclusion criteria) and entered Study ATB200-07 and 2) the OLE-FAS Population (all subjects who entered the OLE Study ATB200-07 who had both a valid ATB200-07 baseline and at least 1 post-baseline assessment for at least 1 of the 6 main efficacy endpoints [6MWD, sitting % predicted FVC, MMT-lower extremities, PROMIS-Physical Function, PROMIS-Fatigue, and GSGC]).
# [8] = tested on: adult subjects with late-onset Pompe disease (LOPD); experiment: Study ATB200-03: global test and responder analyses on 6MWD, FVC, MMT; assay type: in vivo, human
# Description: To support the interpretation of clinical benefit, a composite subject-level response was defined based on the totality of the treatment outcome data. Subjects were classified by an ordinal response variable consisting of significant improvement, moderate improvement, or minor/no improvement based on treatment outcomes.
# Thresholds for clinically relevant changes for 6MWD and FVC in Pompe specifically are not well established, however a large body of data exists from other neuromuscular and chronic respiratory diseases, especially interstitial pulmonary fibrosis (IPF). […] Accordingly, these thresholds were applied to analyses of Study ATB200-03 data.
# Additional post hoc patient-level analyses were conducted using these thresholds for 6MWD (±6%) and FVC (±3%) separately and combined.
# [9] = tested on: adult subjects with late-onset Pompe disease (LOPD); experiment: Study ATB200-03 (PROPEL): urinary hexose tetrasaccharide (Hex4/Glc4); assay type: in vivo, human; details: for urinary Hex4 reduction vs alglucosidase alfa: week 52
# [10] = exposure interval >15 to ≤24 months, Pool 2, including the outlier
# [11] = exposure interval >24 months, Pool 2, including the outlier
# [12] = exposure interval ≤15 months, Pool 2, including the outlier
# [13] = Study ATB200-03 baseline, OLE-ES Population excluding Subject 4005-2511
# [14] = change from ATB200-03 baseline at Week 52, OLE-ES excluding Subject 4005-2511
# [15] = change from ATB200-03 baseline at Week 104, alglucosidase alfa/placebo group switched to cipaglucosidase alfa/miglustat at Week 52, OLE-ES excluding Subject 4005-2511
# [16] = listed as cipaglucosidase alfa/miglustat
# [17] = OLE-ES Population, continued cipaglucosidase alfa/miglustat
# [18] = Excluding Subject 4005-2511, change from baseline to Week 52, 2-sided p 0.010
# [19] = ITT Population, change from baseline to Week 52, 2-sided p 0.022
substance,measurement,setting,value
"ATB200/miglustat: two-component therapy: cipaglucosidase alfa (ATB200) administered in conjunction with miglustat (AT2221), a stabilizer of cipaglucosidase alfa","CHG to Week 52 in PROMIS-Physical Function total score, LS Mean Treatment Difference","[1]; cipaglucosidase alfa/miglustat − alglucosidase alfa/placebo, MMRM, actual time point, ITT-OBS, ERT-experienced Subjects",3.5
same,PROMIS physical function outcome,[1],PROMIS physical function numerically favored ATB200/miglustat treatment
same,PROMIS physical function outcome,[1]; listed as AT-GAA,improved numerically more than alglucosidase alfa treated patients
same,mean (SD) change in PROMIS-Physical Function total score from baseline to Week 52,[1]; overall population,1.9 (7.50)
same,mean (SD) change from baseline in % predicted FVC,[2]; exposure >15 to ≤24 months (n=97),-0.88 (7.103)
same,mean (SD) change from baseline in % predicted FVC,[2]; exposure >24 months (n=68),−2.55 (8.393)
same,"Sitting % Predicted FVC Baseline, Mean",[2]; [10],66.89 % predicted
same,"Sitting % Predicted FVC Baseline, Median",[2]; [10],67.50 % predicted
same,"sitting % predicted FVC change from baseline, mean",[2]; [10],−0.88 % predicted
same,"sitting % predicted FVC change from baseline, median",[2]; [10],−1.00 % predicted
same,"Sitting % Predicted FVC Baseline, Mean",[2]; [11],67.15 % predicted
same,"Sitting % Predicted FVC Baseline, Median",[2]; [11],69.00 % predicted
same,"sitting % predicted FVC change from baseline, mean",[2]; [11],−2.55 % predicted
same,"sitting % predicted FVC change from baseline, median",[2]; [11],−2.25 % predicted
same,"Sitting % Predicted FVC Baseline, Mean","[2]; exposure interval ≤15 months, Pool 2, Efficacy Population including the outlier",67.51 % predicted
same,"Sitting % Predicted FVC Baseline, Median",[2]; [12],68.00 % predicted
same,"sitting % predicted FVC change from baseline, median",[2]; [12],−1.00 % predicted
same,"sitting % predicted FVC change from baseline, mean","[2]; exposure interval ≤15 months, last available post-baseline value − baseline, Pool 2, including the outlier",−0.74 % predicted
same,mean (SD) change from baseline in % predicted FVC,[2]; exposure ≤15 months (n=139),-0.74 (6.121)
same,CK course to Week 104,"[3]; OLE-ES Population, listed as cipaglucosidase alfa/miglustat","CK and Hex4 declined substantially through Study ATB200-03, then stabilized through Study ATB200-07; also recorded: declined substantially after subjects switched to cipaglucosidase alfa/miglustat through Week 104"
same,"CK, mean BSL",[3]; [13],440.6
same,"CK, mean 52-wk CFB",[3]; [14],−129.1
same,"CK, mean 104-wk CFB",[3]; [15],−154.9
same,mean change in CK after 52 weeks,[4]; combined study population,−22.4%
same,CK reduction vs alglucosidase alfa,[4],reductions in CK and urinary Hex4 were significantly greater with ATB200/miglustat treatment at week 52
same,CK reduction vs alglucosidase alfa,[4]; listed as AT-GAA,significantly favored AT-GAA compared to alglucosidase alfa
same,CK reduction vs alglucosidase alfa,[4]; [16],reductions in biomarkers of muscle damage (CK) and disease substrate (Hex4) also were significantly greater with cipaglucosidase alfa/miglustat compared with alglucosidase alfa
same,6MWD course to Week 104,[5]; [17],"showed an improvement through Study ATB200-03, which was then maintained through Week 104"
same,"6MWD, mean BSL",[5]; [13],354.9 m
same,"6MWD, mean 52-wk CFB","[5]; change from ATB200-03 baseline at Week 52 (= ATB200-07 baseline), OLE-ES excluding Subject 4005-2511",20.6 m
same,"6MWD, mean 104-wk CFB",[5]; [15],20.2 m
same,sitting % predicted FVC course to Week 104,[6]; [17],"showed a slight decline from baseline through Study ATB200-03, then stabilized through Week 104"
same,"Sitting FVC, mean BSL",[6]; [13],70.7 % predicted
same,"Sitting FVC, mean 52-wk CFB",[6]; [14],−1.1 % predicted
same,"Sitting FVC, mean 104-wk CFB",[6]; [15],−1.6 % predicted
same,"PROMIS-Fatigue, mean BSL",[7]; [13],22.1
same,"PROMIS-Fatigue, mean 52-wk CFB","[7]; change from ATB200-03 baseline at Week 52, decrease indicates improvement, OLE-ES excluding Subject 4005-2511",−2.3
same,"PROMIS-Fatigue, mean 104-wk CFB",[7]; [15],−1.6
same,Wilcoxon rank sum test on sum of ranks for 6MWD and % predicted FVC: Mean Score,[8]; [18],66.5
same,Wilcoxon rank sum test on sum of ranks for 6MWD and % predicted FVC: Sum of Scores,[8]; [18],5587.5
same,Wilcoxon rank sum test on sum of ranks for 6MWD and FVC: Mean Score,[8]; [19],66.5
same,Wilcoxon rank sum test on sum of ranks for 6MWD and FVC: Sum of Scores,[8]; [19],5587.5
same,post hoc global test on 6MWD and % predicted FVC,"[8]; Wilcoxon rank-sum on summed ranks, listed as cipaglucosidase alfa/miglustat",greater improvement in either 6MWD or FVC; also recorded: greater improvement in subjects treated with cipaglucosidase alfa/miglustat versus alglucosidase alfa/placebo
same,"patient-level responder analyses 6MWD, FVC, MMT","[8]; thresholds ±6%, ±3%, ±7%, overall population, listed as cipaglucosidase alfa/miglustat",a greater proportion of subjects in the overall population treated with cipaglucosidase alfa/miglustat demonstrated clinically meaningful improvement and a smaller proportion demonstrated clinically meaningful worsening across these 3 endpoints; also recorded: significantly greater proportion of subjects with improvement on both domains
same,mean change in urine Hex-4 after 52 weeks,[9]; combined ERT switch and ERT naïve population,−31.5%
same,urinary Hex4 reduction vs alglucosidase alfa,[9],reductions in CK and urinary Hex4 were significantly greater with ATB200/miglustat treatment at week 52
same,urinary Hex4 reduction vs alglucosidase alfa,[9]; listed as AT-GAA,significantly favored AT-GAA compared to alglucosidase alfa
same,urinary Hex4 reduction vs alglucosidase alfa,[9]; [16],reductions in biomarkers of muscle damage (CK) and disease substrate (Hex4) also were significantly greater with cipaglucosidase alfa/miglustat compared with alglucosidase alfa

# Reference: US20260041744A1, “Methods for Treating Pompe Disease” (Amicus Therapeutics, Inc., priority 2022, published 2026)
